# Measured values as given in patent US5770574A, “Long-chain alkylamides of amino acids and peptides with anti-proliferative and anti-inflammatory properties” (ASTA Medica Aktiengesellschaft, priority 1994, dated 1998).
# System: L1210 mouse leucemia
# Test: inhibition of colony formation in soft agar (colony assay), L1210
# Format: cell-based
# Conditions: among the compounds of the table
# Protocol: (§1) The effectiveness of the compounds defined in accordance with the invention was tested as to their in vitro cytotoxicity. The investigations about inhibition of colony formation in soft agar (colony assay) were carried out in conformity with the method of Hamburger and Salmon (A. W. Hamburger, S. E. Salmon, "Primary Bioassay of Human Myeloma Stem Cells", J. Clin. Invest. 60: 846-854 (1977); A. W. Hamburger and S. E. Salmon, "Primary Bioassay of Human Tumor Stem Cells", Science 197: 461-463 (1977)). The tumor cells were incubated in RPMI-1640 medium with 20% fetal calf serum and 0.3% agar in the presence of different concentrations of the test substance at 37° C., 95% relative air humidity and 5% CO2. Triple values were taken in each instance. The incubation time was 6 days for L1210 mouse leucemia and 8 days for KB human mucous-membrane carcinoma. The colonies formed (>50 cells) were subsequently counted.
row,Compound,activity against L 1210 cells (ranking in words)
1,"CCCCCCCCCCCCCCNC(=O)C1CSCN1 [D-21 979, H--THZ--NHC14 H29]",highest activity
2,"CCCCCCCCCCCCCCCCCCNC(=O)[C@H](N)CCCCNC(=O)[C@H](N)CCCCN.Cl.Cl.Cl [D-22 628, H--D--LYS(D--LYS)--NHC18 H37.3HCL]",highest activity

# Same assay, conditions: concentration giving 90% inhibition of colony formation, determined by graph; 6 days incubation
row,Compound,Cytotoxicity in vitro EC90 L 1210
1,"CCCCCCCCCCCCCCCCCCNC(=O)C(N)CCCNC(=O)C(N)CCCN.Cl.Cl.Cl [D-20 989, H--ORN(ORN)--NHC18 H37.3HCL]",3.1 µg/mL
2,"Br.Br.Br.CCCCCCCCCCCCCCCCCCNC(=O)C(N)CCCCNC(=O)C(N)CCCCN [D-20 994, H--LYS(LYS)--NHC18 H37.3HBr]",3.2 µg/mL
3,"CCCCCCCCCCCCCCCCCCNC(=O)C(N)CCCCNC(=O)C(N)CCCCN.Cl.Cl.Cl [D-21 621, H--LYS(LYS)--NHC18 H37.3HCl]",2.2 µg/mL
4,"CCCCCCCCCCCCCCNC(=O)C1CSCN1 [D-21 979, H--THZ--NHC14 H29]",0.3 µg/mL
5,"CCCCCCCCCCCCCCCCNC(=O)C1CSCN1 [D-21 980, H--THZ--NHC16 H33]",3.4 µg/mL
6,"CCCCCCCCCCCCCCCCCCNC(=O)C(CCCCN)NC(=O)C(N)CCCCN [D-22 267, H--LYS--LYS--NHC18 H37]",3.1 µg/mL
7,"CCCCCCCCCCCCCCCCCCNC(=O)[C@H](N)CCCCNC(=O)[C@H](N)CCCCN.Cl.Cl.Cl [D-22 628, H--D--LYS(D--LYS)--NHC18 H37.3HCL]",0.8 µg/mL
8,H--LYS[(LYS)LYS]--NHC18 h37.4HBr [D-20 995],> 3 µg/mL
9,H--ORN[(ORN)ORN]--NHC18 H37 4HCl [D-20 990],> 10 µg/mL

# System: KB human mucous-membrane carcinoma
# Test: inhibition of colony formation in soft agar (colony assay), KB
# Format: cell-based
# Conditions: among the compounds of the table
# Protocol: as §1
row,Compound,activity against KB cells (ranking in words)
1,"Br.Br.Br.CCCCCCCCCCCCCCCCCCNC(=O)C(N)CCCCNC(=O)C(N)CCCCN [D-20 994, H--LYS(LYS)--NHC18 H37.3HBr]",highest activity
2,"CCCCCCCCCCCCCCCCCCNC(=O)C(CCCCN)NC(=O)C(N)CCCCN [D-22 267, H--LYS--LYS--NHC18 H37]",highest activity
3,H--LYS[(LYS)LYS]--NHC18 h37.4HBr [D-20 995],highest activity

# Same assay, conditions: concentration giving 90% inhibition of colony formation, determined by graph; 8 days incubation
row,Compound,Cytotoxicity in vitro EC90 KB
1,"CCCCCCCCCCCCCCCCCCNC(=O)C(N)CCCNC(=O)C(N)CCCN.Cl.Cl.Cl [D-20 989, H--ORN(ORN)--NHC18 H37.3HCL]",1.3 µg/mL
2,"Br.Br.Br.CCCCCCCCCCCCCCCCCCNC(=O)C(N)CCCCNC(=O)C(N)CCCCN [D-20 994, H--LYS(LYS)--NHC18 H37.3HBr]",0.8 µg/mL
3,"CCCCCCCCCCCCCCCCCCNC(=O)C(N)CCCCNC(=O)C(N)CCCCN.Cl.Cl.Cl [D-21 621, H--LYS(LYS)--NHC18 H37.3HCl]",1.4 µg/mL
4,"CCCCCCCCCCCCCCNC(=O)C1CSCN1 [D-21 979, H--THZ--NHC14 H29]",3.1 µg/mL
5,"CCCCCCCCCCCCCCCCNC(=O)C1CSCN1 [D-21 980, H--THZ--NHC16 H33]",3.1 µg/mL
6,"CCCCCCCCCCCCCCCCCCNC(=O)C(CCCCN)NC(=O)C(N)CCCCN [D-22 267, H--LYS--LYS--NHC18 H37]",0.3 µg/mL
7,"CCCCCCCCCCCCCCCCCCNC(=O)[C@H](N)CCCCNC(=O)[C@H](N)CCCCN.Cl.Cl.Cl [D-22 628, H--D--LYS(D--LYS)--NHC18 H37.3HCL]",1.1 µg/mL
8,H--LYS[(LYS)LYS]--NHC18 h37.4HBr [D-20 995],0.9 µg/mL
9,H--ORN[(ORN)ORN]--NHC18 H37 4HCl [D-20 990],1.7 µg/mL

# System: small-cell bronchial carcinoma LXFS 538
# Test: human tumors transplanted into the naked mouse, LXFS 538
# Format: in vivo
# Conditions: LXFS 538 xenograft, 45 mg/kg i.p. per day 1.5 and 9
# Protocol: (§2) The compound H-LYS(LYS)-NHC18 H37.3HCL (D-21621) was tested separately on human tumors transplanted into the naked mouse. […] This tumor is resistant to all standard cytostatic agents.
row,Compound,tumor inhibition
1,"CCCCCCCCCCCCCCCCCCNC(=O)C(N)CCCCNC(=O)C(N)CCCCN.Cl.Cl.Cl [D-21 621, H--LYS(LYS)--NHC18 H37.3HCl]",37 % of the control

# System: ovarian carcinoma OVXF 899
# Test: human tumors transplanted into the naked mouse, OVXF 899
# Format: in vivo
# Conditions: OVXF 899 xenograft, same conditions (45 mg/kg i.p. per day 1.5 and 9)
# Protocol: as §2
row,Compound,tumor inhibition
1,"CCCCCCCCCCCCCCCCCCNC(=O)C(N)CCCCNC(=O)C(N)CCCCN.Cl.Cl.Cl [D-21 621, H--LYS(LYS)--NHC18 H37.3HCl]",46 % of the control
